# Where two headings read alike, the source gives them in different places.
# Legend:
# [1] = biological target: conversion of PrP^C to PrP^Sc (Mus musculus, UniProt P04925); type: cell-based; details: for reduction of the amount of detergent insoluble PrP: 100 mM
# [2] = biological target: temperature sensitive (ts) mutant p53 protein (Mus musculus, UniProt P02340, A135V); assay: Intracellular localization of temperature sensitive p53 in A1-5 cells by indirect immunofluorescence; details: 39.5° C., after 2 D treatment
# [3] = tested on: temperature sensitive form of pp60^src; type: cell-based, Rous sarcoma virus; details: 39.5° C.
# ΔF508 CFTR [4] = biological target: T1, ΔF508 CFTR (Homo sapiens, UniProt P13569, DEL508-508); assay: Forskolin stimulated chloride transport, SPQ fluorescence assay; type: cell-based; details: for forskolin dependent chloride efflux: 37° C.
# T1 construct: expressed in transfected cells
# Protocol: (§1) Forskolin-sensitive chloride transport was measured by the fluorescence assays method (FIG. 3). Briefly, ΔF508-CFTR expressing cells were grown on glass coverslips at 37° C. in the absence or presence of 1.25 M glycerol for 3 days. These cells, along with cells expressing wild type CFTR, then were examined for forskolin stimulated chloride transport using SPQ fluorescence assays, as described in: Verkman, A. S., Am. J. Physiol., 259:C375 (1990); Verkman, A. S. et al., in Methods in Neurosciences, Kraicer, J. et al., Eds. (Academic Press, 1995) vol. 27, 328. Plasma membrane chloride efflux was measured from the time course of increase in SPQ fluorescence in response to replacement of intracellular chloride by nitrate. Cells in the presence or absence of a protein stabilizing agent were incubated with 2 mM SPQ for 12-18 hrs. prior to measurements. The rate of chloride efflux was measured before and after stimulation of cAMP with forskolin. The reaction was quenched by the addition of 150 mM KSCN.
# (§2) The positive effect of glycerol treatment on chloride conductance was concentration and time dependent (FIG. 3B). ΔF508 CFTR-expressing cells growing on glass coverslips were incubated with various concentrations of glycerol for 3 days and then examined for forskolin stimulated chloride transport. Alternatively, cells were incubated with 1.25 M glycerol for varying times (1, 2 or 3 days) and then analyzed for chloride transport following stimulation by forskolin.
# Powdered DMEM medium (Gibco) was reconstituted in 100% distilled water or in 100% […]. Cells transfected with ΔF508 CFTR or mock transfected cells were incubated in either the distilled water or the dH2O containing culture medium for two days at 37° C., and then analyzed for forskolin dependent chloride efflux.
# Both mock transfected cells and the cells transfected with ΔF508 CFTR were incubated in regular DMEM culture medium containing 100 mM TMAO for two days at 37° C. and then analyzed for forskolin dependent chloride efflux.
# In contrast, cells treated with 4 different osmolytes now show partial chloride transport (note however that it never reaches the wild type levels, rather only about 10-30% of wild type).
# ΔF508 CFTR [5] = biological target: T1, ΔF508 CFTR; assay: Western blotting of ΔF508 CFTR processing and maturation in transfected NIH 3T3 cells; type: cell-based
# Protocol: The effect of glycerol was measured by detecting either (1) the maturation of immature core-glycosylated endoplasmic reticulum forms of the ΔF508 CFTR to mature terminally glycosylated forms, or (2) the presence of forskolin-dependent chloride transport.
# Western blotting using a commercially available anti-CFTR monoclonal antibody (panel 1A) or our polyclonal anti-CFTR antibody (Panel 1B) was performed using cell lysates from NIH 3T3 cells transfected with either the wild type or ΔF508 forms of CFTR. Andersen, M. P. et al., Science, 253:202 (1991). Both the polyclonal and monoclonal antibodies recognized the 140 kDa (core glycosylated, or B form) and 160 kDa (fully glycosylated, C form) forms of CFTR in lysates from wild type CFTR expressing cells. In contrast, only the 140 kDa core glycosylated CFTR was detected by the two antibodies in the lysates from cells transfected with the ΔF508 CFTR mutant.
# In panel 1C, cells expressing the ΔF508 mutant were examined by Western blotting using the rabbit polyclonal antibody following their treatment at 37° C. with 1 M glycerol for 3 days. As a positive control, the ΔF508 CFTR expressing cells were incubated at 26° C. for 3 days.
# The results of experiments to determine the optimal concentration of glycerol and the duration of glycerol treatment needed to elicit the highest levels of mutant ΔF508 CFTR maturation are summarized in FIG. 2. In panel 2A, cells expressing ΔF508 CFTR were incubated at 37° C. for 3 days in culture medium containing various concentrations of glycerol. The cells were harvested and then analyzed by Western blotting using the rabbit polyclonal anti-CFTR antibody. In panel 2B, cells expressing ΔF508 CFTR were incubated with 1.25 M glycerol at 37° C. for 1, 2 or 3 days and then analyzed by Western blotting as described in A. Glycerol concentrations of 1-1.25 M gave the maximal amount of mutant protein which was properly processed.
# In Panel A of FIG. 22, 3T3 cells expressing the ΔF508 CFTR protein (via stable transfection) were treated with either 100 or 200 mM of the specified cellular osmolytes for 2 days. Cells were then lysed and examined by Western blot analysis. Wt represents cells expressing the wild type CFTR protein. B, G, T, S and M indicated cells treated with betaine, glucose, taurine, sorbitol and myoinositol, respectively.
# In Panel A, cells expressing ΔF508 CFTR were incubated in the presence or absence of varying concentrations (25, 50, 100 mM) of osmolyte. After 2 days of growth, the cells were harvested and analyzed for their content of immature (band B) and mature (band C) forms of the CFTR protein by Western blotting. Cells expressing wild type CFTR (wt) were included as a positive control. In Panel B, cells expressing ΔF508 CFTR were incubated for 1 (1D), 2(2D) or 3 (3D) days in growth medium containing 150 mM of the indicated osmolyte. As a control, the same cells were incubated in normal growth medium. […] After 3 days of continuous treatment with 150 mM osmolyte there is see a “drop-off” of the amount of the C band.
# wild type CFTR protein = biological target: T2, wild type CFTR protein (Homo sapiens, UniProt P13569); assay: Glycerol exposure of cells expressing wild type CFTR (Western blotting, chloride conductance); type: cell-based; details: data not shown
# T2 construct: expressed in transfected cells; host or cells: NIH 3T3 fibroblasts
# Protocol: as §1, with “Cells in the presence or absence of a protein stabilizing agent were incubated with 2 mM SPQ for 12-18 hrs. prior to measurements.” left out, “The reaction was quenched by the addition of 150 mM KSCN.” left out
# as §2
# T1 sequence (P13569 with tags, fused parts or gaps DEL508-508): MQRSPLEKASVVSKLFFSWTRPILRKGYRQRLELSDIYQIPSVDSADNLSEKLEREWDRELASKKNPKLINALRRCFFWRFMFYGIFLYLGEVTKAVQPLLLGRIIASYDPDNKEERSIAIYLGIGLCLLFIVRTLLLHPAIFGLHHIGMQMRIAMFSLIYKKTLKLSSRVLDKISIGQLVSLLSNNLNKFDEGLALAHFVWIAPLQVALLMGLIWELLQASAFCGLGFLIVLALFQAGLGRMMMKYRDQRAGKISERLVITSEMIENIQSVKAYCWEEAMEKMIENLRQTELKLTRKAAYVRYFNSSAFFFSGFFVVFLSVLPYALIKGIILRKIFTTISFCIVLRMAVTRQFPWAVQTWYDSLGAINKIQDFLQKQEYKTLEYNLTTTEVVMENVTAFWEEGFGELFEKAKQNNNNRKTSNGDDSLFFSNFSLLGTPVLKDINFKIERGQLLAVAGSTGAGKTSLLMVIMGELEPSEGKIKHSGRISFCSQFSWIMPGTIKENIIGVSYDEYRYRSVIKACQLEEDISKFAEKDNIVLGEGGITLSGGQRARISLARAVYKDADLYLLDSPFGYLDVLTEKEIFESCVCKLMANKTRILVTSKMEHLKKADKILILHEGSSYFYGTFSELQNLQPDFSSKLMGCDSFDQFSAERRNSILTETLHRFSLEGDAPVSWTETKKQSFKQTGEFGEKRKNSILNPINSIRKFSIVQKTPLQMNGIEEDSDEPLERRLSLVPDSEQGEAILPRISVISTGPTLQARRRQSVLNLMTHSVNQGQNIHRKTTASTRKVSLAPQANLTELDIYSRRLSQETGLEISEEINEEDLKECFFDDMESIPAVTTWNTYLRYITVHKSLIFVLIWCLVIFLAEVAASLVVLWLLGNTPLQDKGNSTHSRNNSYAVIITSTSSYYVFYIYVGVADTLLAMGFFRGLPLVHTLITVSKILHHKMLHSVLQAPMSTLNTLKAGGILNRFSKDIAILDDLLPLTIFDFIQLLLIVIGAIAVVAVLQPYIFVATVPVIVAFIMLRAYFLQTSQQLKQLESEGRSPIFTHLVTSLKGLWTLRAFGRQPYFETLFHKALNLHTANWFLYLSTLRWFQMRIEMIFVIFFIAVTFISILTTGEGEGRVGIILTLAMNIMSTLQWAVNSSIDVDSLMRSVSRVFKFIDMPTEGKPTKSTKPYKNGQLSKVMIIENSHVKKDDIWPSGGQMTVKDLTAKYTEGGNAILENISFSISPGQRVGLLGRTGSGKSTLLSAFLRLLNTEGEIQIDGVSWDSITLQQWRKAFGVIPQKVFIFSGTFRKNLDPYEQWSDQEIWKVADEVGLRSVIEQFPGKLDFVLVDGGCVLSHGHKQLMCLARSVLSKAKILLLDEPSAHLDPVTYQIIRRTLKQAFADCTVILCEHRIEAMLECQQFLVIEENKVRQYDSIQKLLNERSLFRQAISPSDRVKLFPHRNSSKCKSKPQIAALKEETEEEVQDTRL
# Sequence of conversion of PrP^C to PrP^Sc (P04925 23-230 limits assumed): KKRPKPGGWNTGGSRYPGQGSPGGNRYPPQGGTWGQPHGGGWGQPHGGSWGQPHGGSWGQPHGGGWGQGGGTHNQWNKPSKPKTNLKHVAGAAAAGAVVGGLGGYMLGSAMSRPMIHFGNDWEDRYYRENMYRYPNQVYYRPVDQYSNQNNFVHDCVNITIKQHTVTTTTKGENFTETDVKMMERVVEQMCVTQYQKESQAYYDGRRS
# Sequence of temperature sensitive (ts) mutant p53 protein (P02340 whole entry A135V): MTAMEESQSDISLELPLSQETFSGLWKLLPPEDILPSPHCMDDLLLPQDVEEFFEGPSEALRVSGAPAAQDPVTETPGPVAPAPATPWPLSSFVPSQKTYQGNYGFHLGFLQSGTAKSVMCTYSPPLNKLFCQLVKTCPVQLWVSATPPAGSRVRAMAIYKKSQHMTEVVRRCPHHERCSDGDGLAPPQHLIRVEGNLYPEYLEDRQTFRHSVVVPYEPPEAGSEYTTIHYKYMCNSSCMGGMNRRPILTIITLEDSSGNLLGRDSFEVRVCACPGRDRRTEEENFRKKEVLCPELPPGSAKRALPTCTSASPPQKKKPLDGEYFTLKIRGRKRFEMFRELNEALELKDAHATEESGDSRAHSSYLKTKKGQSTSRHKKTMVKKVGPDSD
# T2 sequence (P13569 whole entry): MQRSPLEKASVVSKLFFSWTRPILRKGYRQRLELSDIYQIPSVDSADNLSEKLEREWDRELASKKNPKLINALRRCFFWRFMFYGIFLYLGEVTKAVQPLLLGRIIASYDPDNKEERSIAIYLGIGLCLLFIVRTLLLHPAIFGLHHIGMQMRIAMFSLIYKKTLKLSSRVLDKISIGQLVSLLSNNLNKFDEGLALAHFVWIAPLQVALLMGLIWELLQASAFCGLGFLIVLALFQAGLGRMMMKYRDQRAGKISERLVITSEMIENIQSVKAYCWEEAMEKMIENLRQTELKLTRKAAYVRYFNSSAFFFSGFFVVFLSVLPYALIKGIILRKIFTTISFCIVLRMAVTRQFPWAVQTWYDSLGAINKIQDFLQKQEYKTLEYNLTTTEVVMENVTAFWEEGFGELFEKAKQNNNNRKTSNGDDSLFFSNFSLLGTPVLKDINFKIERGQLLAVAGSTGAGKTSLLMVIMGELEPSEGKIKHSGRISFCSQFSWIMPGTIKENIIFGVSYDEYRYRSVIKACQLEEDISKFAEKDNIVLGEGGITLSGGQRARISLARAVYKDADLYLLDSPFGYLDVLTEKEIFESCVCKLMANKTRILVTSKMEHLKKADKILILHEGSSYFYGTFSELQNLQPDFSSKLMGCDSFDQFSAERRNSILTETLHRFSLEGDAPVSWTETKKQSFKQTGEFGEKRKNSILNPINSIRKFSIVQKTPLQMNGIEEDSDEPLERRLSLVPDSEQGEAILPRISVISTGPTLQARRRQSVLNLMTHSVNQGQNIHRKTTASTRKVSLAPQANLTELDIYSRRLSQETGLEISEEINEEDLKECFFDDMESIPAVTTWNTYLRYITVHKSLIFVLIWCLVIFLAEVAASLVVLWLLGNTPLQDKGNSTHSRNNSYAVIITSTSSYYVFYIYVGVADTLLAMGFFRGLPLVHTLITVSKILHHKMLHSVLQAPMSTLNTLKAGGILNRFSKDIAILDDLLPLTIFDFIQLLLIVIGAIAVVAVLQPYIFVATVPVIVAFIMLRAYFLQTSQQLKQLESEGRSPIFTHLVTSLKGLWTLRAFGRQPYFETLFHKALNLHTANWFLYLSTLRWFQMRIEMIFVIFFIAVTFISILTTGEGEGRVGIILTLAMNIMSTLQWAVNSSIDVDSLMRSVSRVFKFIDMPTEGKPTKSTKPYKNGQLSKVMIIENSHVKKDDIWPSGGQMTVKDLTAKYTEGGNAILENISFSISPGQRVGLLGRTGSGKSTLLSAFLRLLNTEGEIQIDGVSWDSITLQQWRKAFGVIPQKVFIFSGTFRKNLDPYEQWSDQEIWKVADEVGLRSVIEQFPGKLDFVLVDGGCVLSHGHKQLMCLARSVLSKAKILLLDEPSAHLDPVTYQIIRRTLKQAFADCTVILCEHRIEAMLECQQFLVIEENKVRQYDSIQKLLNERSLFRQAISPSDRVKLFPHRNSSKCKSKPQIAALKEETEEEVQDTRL
compound,measurement,setting,value
"C[S+](C)[O-] [DMSO, dimethylsulfoxide]",reduction of the amount of detergent insoluble PrP,[1]; ScN2a cells,over 50%
same,concentration adversely affecting the morphology and growth rates of the cells,ScN2a cells; mouse,≥ 200 mM
"C[N+](C)(C)[O-] [TMAO, trimethylamine N-oxide]",reduction of the amount of detergent insoluble PrP,[1]; ScN2a cells,over 50%
same,p53 distribution 2 days following removal of the agent,[2],all of p53 now was found within the cytoplasm
same,restoration of transformed phenotype / wild type pp60^src activity,[3],much less effective
same,concentration adversely affecting the morphology and growth rates of the cells,ScN2a cells,≥ 200 mM
same,forskolin dependent chloride efflux,"ΔF508 CFTR [4]; 100 mM TMAO, 2 days",Forskolin dependent chloride transport was observed
[2H]O[2H] [deuterated water],p53 distribution 2 days following removal of the agent,[2],all of p53 now was found within the cytoplasm
same,restoration of transformed phenotype / wild type pp60^src activity,[3],much less effective
same,CFTR processing in ΔF508 CFTR-expressing cells,ΔF508 CFTR [5]; deuterated water,competent to induce CFTR processing
same,forskolin dependent chloride efflux,"ΔF508 CFTR [4]; medium in 100% dH2O, two days",exhibited forskolin-dependent chloride transport
OCC(O)CO [glycerol],exogenously added MHM2 PrP in detergent fractions versus untreated ScN2a cells,"[1]; 1 M glycerol 24 hrs, 40 hrs with MHM2 brain extract, 3F4 antibody",reduce the levels of the MHM2 protein in both the detergent soluble and insoluble fractions
same,glycerol concentrations also giving significant reduction in conversion of PrP^C to PrP^Sc,[1]; 3 days,0.25-0.5 M
same,most effective glycerol concentration for reducing detergent insoluble PrP,"[1]; 3 days, 0-1,000 mM tested",1 M
same,overall levels of insoluble PrP versus non-glycerol treated cells,"[1]; ScN2a cells, glycerol 24 hrs",marked reduction
same,PrP^C synthesis and movement of the newly synthesized protein to the plasma membrane (PIPLC release),"[1]; glycerol 24 hrs, PIPLC 5 U/ml 4 hrs",does not significantly affect
same,overall extent of PrP^C to PrP^Sc conversion relative to untreated cells (pulse-chase),"[1]; glycerol 3 days, then 5 days without glycerol",marked reduction
same,rate or overall extent of PrP^C synthesis (metabolic labeling),[1]; presence versus absence of glycerol,no significant differences
same,p53 distribution one day following removal of the agent,[2],no longer displayed a nuclear p53 distribution
same,mature ΔF508 CFTR protein by Western blotting,"ΔF508 CFTR [5]; 1 M glycerol, 37° C., 3 days",significant amounts of the mature ΔF508 CFTR protein
same,duration of treatment giving maximal amounts of fully glycosylated ΔF508 CFTR protein,"ΔF508 CFTR [5]; 1.25 M glycerol, 37° C.",3 days
same,glycerol concentration giving the maximal amount of properly processed mutant protein,"ΔF508 CFTR [5]; 37° C., 3 days",1 to 1.25 M
same,effect of higher doses on fully glycosylated ΔF508 CFTR,"ΔF508 CFTR [5]; doses higher than 1-1.25 M, 3 days",inhibitory
same,forskolin stimulated chloride transport,"ΔF508 CFTR [4]; 1.25 M glycerol, one day",forskolin stimulated chloride transport was observed
same,concentration giving maximal rates of chloride efflux,ΔF508 CFTR [4]; 3 days,1.25 M
same,lowest concentration with increased chloride transport,ΔF508 CFTR [4]; 3 days,0.5 M
same,effect on amount of mature wild type CFTR protein or forskolin dependent chloride conductance,wild type CFTR protein,little or no effect

# From patent US6541195B2, “Correction of genetic defects using chemical chaperones” (The Regents of the University of California, priority 1996, dated 2003)
